The values that follow are results of earlier work, collected in patent US10959921B2, “Emulsifying system for microemulsions with high skin tolerance” (Henkel AG & Co. KGaA, priority 2017, dated 2021).

For the data set the following is noted: concentrations above about 1.5 wt. %.

Consider lauryl glucoside, for which the “Skin tolerance in leave-on applications” value was “skin intolerances”.
